Results from patent US20220380319A1 (Bial - R&D Investments, S.A., priority 2019, published 2022).
Converted amounts (≈) assume the structure as drawn.

What was measured:
acid ceramidase = target: T1, acid ceramidase (Homo sapiens, UniProt Q13510); assay: Acid ceramidase inhibition, biochemical fluorescent assay with cell lysates overexpressing acid ceramidase, substrate Rbm14-12; settings: substrate Rbm14-12 6.3 μM, pH 4.5
T1 construct: Cell lysates overexpressing acid ceramidase were used as the enzyme source; expressed in transfected cells
T1 sequence (Q13510 22-395): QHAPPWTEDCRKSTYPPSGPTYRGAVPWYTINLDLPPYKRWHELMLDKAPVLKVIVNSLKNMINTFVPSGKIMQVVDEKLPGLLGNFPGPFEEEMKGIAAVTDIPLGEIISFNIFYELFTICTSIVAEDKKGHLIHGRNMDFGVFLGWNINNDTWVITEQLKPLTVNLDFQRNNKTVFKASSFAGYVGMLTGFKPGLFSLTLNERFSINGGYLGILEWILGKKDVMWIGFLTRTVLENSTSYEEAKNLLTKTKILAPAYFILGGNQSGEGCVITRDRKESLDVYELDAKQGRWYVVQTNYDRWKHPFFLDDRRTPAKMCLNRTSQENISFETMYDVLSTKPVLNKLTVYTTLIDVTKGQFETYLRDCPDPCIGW
How it was run: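 Lysate of cells overexpressing acid ceramidase (10 μg protein) preincubated with compound dose series 1 hr at RT in 25 mM NaAC, 100 mM NaCl, pH 4.5, then reacted 1 hr with 6.3 μM Rbm14-12. Stopped with NaIO4/glycine buffer pH 10.6, fluorescence ex360/em446; IC50 by four-parameter fit.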

[1] = Compound solubility in water

| SMILES | IC50 (acid ceramidase) | solubility [1] |
| --- | --- | --- |
| CC(C)CCNC(=O)n1cnc2c(N3C[C@@H](C)O[C@@H](C)C3)cccc21 [Example 167, 4-((2S,6R)-2,6-Dimethylmorpholino)-N-iso-pentyl-1H-benzo[d]imidazole-1-carboxamide] | 200 to 1000 nM | 4 µg/mL (≈ 11.6 µM) |
| CC(C)CCNC(=O)n1cnc2c(N3CCOC[C@@H]3C)cccc21 [Example 169, (S)—N-iso-Pentyl-4-(3-methylmorpholino)-1H-benzo[d]imidazole-1-carboxamide] | 200 to 1000 nM | 23 µg/mL (≈ 69.6 µM) |
| CC(C)CCNC(=O)n1cnc2c(N3CCOC(C)(C)C3)cccc21 [Example 170, 4-(2,2-Dimethylmorpholino)-N-isopentyl-1H-benzo[d]imidazole-1-carboxamide] | 200 to 1000 nM | 14 µg/mL (≈ 40.6 µM) |
| CC(C)CCNC(=O)n1cnc2c(N3CCO[C@@H](C)C3)cccc21 [Example 171, (S)—N-iso-Pentyl-4-(2-methylmorpholino)-1H-benzo[d]imidazole-1-carboxamide] | 200 to 1000 nM | 15 µg/mL (≈ 45.4 µM) |
| CC(C)CCNC(=O)n1cnc2c(N3CCO[C@@H](C(C)C)C3)cccc21 [Example 172a, (S)—N-iso-Pentyl-4-(2-iso-propylmorpholino)-1H-benzo[d]imidazole-1-carboxamide] | 200 to 1000 nM | 4 µg/mL (≈ 11.2 µM) |
| CC(C)CCNC(=O)n1cnc2c(N3CCO[C@H](C(C)C)C3)cccc21 [Example 172b, (R)—N-iso-pentyl-4-(2-iso-propylmorpholino)-1H-benzo[d]imidazole-1-carboxamide] | 200 to 1000 nM | 4 µg/mL (≈ 11.2 µM) |
| CC(C)CCNC(=O)n1cnc2c(N3CCCOCC3)cccc21 [Example 173, N-iso-Pentyl-4-(1,4-oxazepan-4-yl)-1H-benzo[d]imidazole-1-carboxamide] | 200 to 1000 nM | 17 µg/mL (≈ 51.4 µM) |
| CC(C)CCNC(=O)n1cnc2c(N3CCO[C@@H](Cc4ccccc4)C3)cccc21 [Example 174, (S)-4-(2-Benzylmorpholino)-N-iso-pentyl-1H-benzo[d]imidazole-1-carboxamide] | 200 to 1000 nM | 1 µg/mL (≈ 2.46 µM) |
| CC(C)CCNC(=O)n1cnc2c(N3CCC4(CC3)COC4)cccc21 [Example 175, N-iso-Pentyl-4-(2-oxa-7-azaspiro[3.5]nonan-7-yl)-1H-benzo[d]imidazole-1-carboxamide] | 200 to 1000 nM | 18 µg/mL (≈ 50.5 µM) |
| CC(C)CCNC(=O)n1cnc2c(N3CC4(COC4)C3)cccc21 [Example 176] | 200 to 1000 nM | 22 µg/mL (≈ 67 µM) |
| COC1(C)CN(c2cccc3c2ncn3C(=O)NCCC(C)C)C1 [Example 177, N-iso-Pentyl-4-(3-methoxy-3-methylazetidin-1-yl)-1H-benzo[d]imidazole-1-carboxamide] | 200 to 1000 nM | 13 µg/mL (≈ 39.3 µM) |
| N#Cc1cc(N2CCOCC2)c2ncn(C(=O)NCCCC3CC3)c2c1 [Example 178, 6-Cyano-N-(3-cyclopropylpropyl)-4-morpholino-1H-benzo[d]imidazole-1-carboxamide] | < 200 nM | 2 µg/mL (≈ 5.66 µM) |
| CC(C)CCNC(=O)n1cnc2c(N3CCOCC3)cc(C#N)cc21 [Example 179, 6-Cyano-N-iso-pentyl-4-morpholino-1H-benzo[d]imidazole-1-carboxamide] | < 200 nM | 10 µg/mL (≈ 29.3 µM) |
| CC(C)CCNC(=O)n1cnc2c(N3CCN(C)CC3)cc(C#N)cc21 [Example 180, 6-Cyano-N-iso-pentyl-4-(4-methylpiperazin-1-yl)-1H-benzo[d]imidazole-1-carboxamide] | < 200 nM | 23 µg/mL (≈ 64.9 µM) |
| CC(C)CCNC(=O)n1cnc2c(C3CCN(C)CC3)cccc21 [Example 182, N-iso-Pentyl-4-(1-methylpiperidin-4-yl)-1H-benzo[d]imidazole-1-carboxamide] | 200 to 1000 nM | 32 µg/mL (≈ 97.4 µM) |
| COc1nc2ccc(N3CCOCC3)cc2n1C(=O)NCCCC1(C(F)(F)F)CC1 [Example 183a, 2-Methoxy-6-morpholino-N-(3-(1-(trifluoromethyl)cyclopropyl)propyl)-1H benzo[d]imidazole-1-carboxamide] | < 200 nM | 15 µg/mL (≈ 35.2 µM) |
| COc1nc2cc(N3CCOCC3)ccc2n1C(=O)NCCCC1(C(F)(F)F)CC1 [Example 183b, 2-methoxy-5-morpholino-N-(3-(1-(trifluoromethyl)cyclopropyl)propyl)-1H-benzo[d]imidazole-1-carboxamide] | < 200 nM | 3 µg/mL (≈ 7.04 µM) |
| CC(C)(C)CCNC(=O)n1cnc2c(N3CCN(C4CC4)CC3)cccc21 [Example 185, 4-(4-Cyclopropylpiperazin-1-yl)-N-(3,3-dimethylbutyl)-1H-benzo[d]imidazole-1-carboxamide] | 200 to 1000 nM | 2 µg/mL (≈ 5.41 µM) |

| SMILES | IC50 (acid ceramidase) | solubility [1] |
| --- | --- | --- |
| CC(C)(C)CCCNC(=O)n1cnc2c(N3CCOCC3)cccc21 [Example 186, N-(4,4-Dimethylpentyl)-4-morpholino-1H-benzo[d]imidazole-1-carboxamide] | < 200 nM | 10 µg/mL (≈ 29 µM) |
| COc1nc2ccccc2n1C(=O)NCCCCn1ccc(C(C)(C)C)n1 [Example 187, N-(4-(3-(tert-Butyl)-1H-pyrazol-1-yl)butyl)-2-methoxy-1H-benzo[d]imidazole-1-carboxamide] | 200 to 1000 nM | 22 µg/mL (≈ 59.5 µM) |
| COc1nc2cc(N3CCOCC3)ccc2n1C(=O)NCCCCn1ccc(C(C)(C)C)n1 [Example 188a, N-(4-(3-(tert-Butyl)-1H-pyrazol-1-yl)butyl)-2-methoxy-5-morpholino-1H-benzo[d]imidazole-1-carboxamide] | 200 to 1000 nM | 27 µg/mL (≈ 59.4 µM) |
| COc1nc2ccc(N3CCOCC3)cc2n1C(=O)NCCCCn1ccc(C(C)(C)C)n1 [Example 188b, N-(4-(3-(tert-butyl)-1H-pyrazol-1-yl)butyl)-2-methoxy-6-morpholino-1H-benzo[d]imidazole-1-carboxamide] | 200 to 1000 nM | 26 µg/mL (≈ 57.2 µM) |
| CCOc1nc2cc(N3CCOCC3)ccc2n1C(=O)NCCCc1ccccc1 [Example 189a, 2-Ethoxy-5-morpholino-N-(3-phenylpropyl)-1H-benzo[d]imidazole-1-carboxamide] | < 200 nM | 2 µg/mL (≈ 4.9 µM) |
| CCOc1nc2ccc(N3CCOCC3)cc2n1C(=O)NCCCc1ccccc1 [Example 189b, 2-ethoxy-6-morpholino-N-(3-phenylpropyl)-1H-benzo[d]imidazole-1-carboxamide] | < 200 nM | 3 µg/mL (≈ 7.34 µM) |
| COCCOc1nc2cc(N3CCOCC3)ccc2n1C(=O)NCCCc1ccccc1 [Example 190a, 2-(2-Methoxyethoxy)-5-morpholino-N-(3-phenylpropyl)-1H-benzo[d]imidazole-1 carboxamide] | < 200 nM | 17 µg/mL (≈ 38.8 µM) |
| COCCOc1nc2ccc(N3CCOCC3)cc2n1C(=O)NCCCc1ccccc1 [Example 190b, 2-(2-methoxyethoxy)-6-morpholino-N-(3-phenylpropyl)-1H-benzo[d]imidazole-1-carboxamide] | < 200 nM | 16 µg/mL (≈ 36.5 µM) |
| COCCOc1nc2ccccc2n1C(=O)NCCCc1ccccc1 [Example 191, 2-(2-Methoxyethoxy)-N-(3-phenylpropyl)-1H-benzo[d]imidazole-1-carboxamide] | < 200 nM | 4 µg/mL (≈ 11.3 µM) |
| CN1CCN(c2cccc3c2ncn3C(=O)NCCCc2ccccc2)CC1 [Example 192, 4-(4-Methylpiperazin-1-yl)-N-(3-phenylpropyl)-1H-benzo[d]imidazole-1-carboxamide] | < 200 nM | 12 µg/mL (≈ 31.8 µM) |
| COc1nc2cc(C3CCN(C)CC3)ccc2n1C(=O)NCC(C)C [Example 193, N-iso-Butyl-2-methoxy-5-(1-methylpiperidin-4-yl)-1H-benzo[d]imidazole-1-carboxamide] | > 1000 nM | 39 µg/mL (≈ 113 µM) |
| COc1nc2cc(N3CCN(C)CC3)ccc2n1C(=O)NCCCc1ccccc1 [Example 194, 2-Methoxy-5-(4-methylpiperazin-1-yl)-N-(3-phenylpropyl)-1H-benzo[d]imidazole-1-carboxamide] | 200 to 1000 nM | 30 µg/mL (≈ 73.6 µM) |
| COc1nc2cc(C3CCN(C)CC3)ccc2n1C(=O)NCCCc1ccccc1 [Example 195a, 2-Methoxy-5-(1-methylpiperidin-4-yl)-N-(3-phenylpropyl)-1H-benzo[d]imidazole-1-carboxamide] | > 1000 nM | 43 µg/mL (≈ 106 µM) |
| COc1nc2ccc(C3CCN(C)CC3)cc2n1C(=O)NCCCc1ccccc1 [Example 195b, 2-methoxy-6-(1-methylpiperidin-4-yl)-N-(3-phenylpropyl)-1H-benzo[d]imidazole-1-carboxamide] | > 1000 nM | 39 µg/mL (≈ 95.9 µM) |
| COc1nc2ccc(N3CCOCC3)cc2n1C(=O)NCCCc1nccs1 [Example 196, 2-Methoxy-6-morpholino-N-(3-(thiazol-2-yl)propyl)-1H-benzo[d]imidazole-1-carboxamide] | 200 to 1000 nM | 35 µg/mL (≈ 87.2 µM) |
| CC(C)CCNC(=O)n1cnc2c(N3CCN(C)C(C)C3)cccc21 (stereo not shown) [Example 197, 4-(3,4-Dimethylpiperazin-1-yl)-N-iso-pentyl-1H-benzo[d]imidazole-1-carboxamide] | 200 to 1000 nM | 28 µg/mL (≈ 81.5 µM) |
| CC(C)CCNC(=O)n1cnc2c(N3CCN4CCCCC4C3)cccc21 (stereo not shown) [Example 198, 4-(Hexahydro-1H-pyrido[1,2-a]pyrazin-2(6H)-yl)-N-iso-pentyl-1H-benzo[d]imidazole-1-carboxamide] | 200 to 1000 nM | 28 µg/mL (≈ 75.8 µM) |
